Assays:
[1] = biological target: Beta-adrenergic receptor kinase 1 (Homo sapiens) (UniProt P25098); settings: Compound concentration 100.0 nM
[2] = biological target: Dual specificity protein kinase CLK4 (Homo sapiens) (UniProt Q9HAZ1); settings: Compound concentration 100.0 nM
[3] = system: Proto-oncogene tyrosine-protein kinase receptor Ret (Homo sapiens), P07949 [M918T]; settings: Compound concentration 100.0 nM
[4] = biological target: Serine/threonine-protein kinase Chk1 (Homo sapiens) (UniProt O14757); settings: Compound concentration 100.0 nM
[5] = biological target: Myosin-IIIa (Homo sapiens) (UniProt Q8NEV4); settings: Compound concentration 100.0 nM
[6] = biological target: Non-receptor tyrosine-protein kinase TYK2 (Homo sapiens) (UniProt P29597); settings: Compound concentration 100.0 nM
[7] = biological target: cGMP-dependent protein kinase 2 (Homo sapiens) (UniProt Q13237); settings: Compound concentration 100.0 nM
[8] = biological target: Myosin light chain kinase (Homo sapiens) (UniProt Q32MK0); settings: Compound concentration 100.0 nM
[9] = biological target: Calcium/calmodulin-dependent protein kinase type 1B (Homo sapiens) (UniProt Q6P2M8); settings: Compound concentration 100.0 nM
[10] = biological target: Phosphatidylinositol 4,5-bisphosphate 3-kinase catalytic subunit gamma isoform (Homo sapiens) (UniProt P48736); settings: Compound concentration 100.0 nM
[11] = biological target: Sigma intracellular receptor 2 (Homo sapiens, UniProt Q5BJF2); settings: Compound concentration 10.0 uM
[12] = biological target: Serine/threonine-protein kinase mTOR (Homo sapiens) (UniProt P42345); settings: Compound concentration 100.0 nM
[13] = system: Mast/stem cell growth factor receptor Kit (Homo sapiens), P10721 [V559D]; settings: Compound concentration 100.0 nM
[14] = system: Tyrosine-protein kinase ABL1 (Homo sapiens), P00519 [M351T]; settings: Compound concentration 100.0 nM
[15] = biological target: Serine/threonine-protein kinase Sgk1 (Homo sapiens) (UniProt O00141); settings: Compound concentration 100.0 nM
[16] = biological target: Serine/threonine-protein kinase NIM1 (Homo sapiens) (UniProt Q8IY84); settings: Compound concentration 100.0 nM
[17] = biological target: Serine/threonine-protein kinase SIK1 (Homo sapiens) (UniProt P57059); settings: Compound concentration 100.0 nM
[18] = biological target: Homeodomain-interacting protein kinase 4 (Homo sapiens) (UniProt Q8NE63); settings: Compound concentration 100.0 nM
[19] = biological target: Mitogen-activated protein kinase kinase kinase 4 (Homo sapiens) (UniProt Q9Y6R4); settings: Compound concentration 100.0 nM
[20] = system: Tyrosine-protein kinase ABL1 (Homo sapiens), P00519 [F317I]; settings: Compound concentration 100.0 nM
[21] = biological target: Serine/threonine-protein kinase RIO2 (Homo sapiens) (UniProt Q9BVS4); settings: Compound concentration 100.0 nM
[22] = biological target: cAMP-dependent protein kinase catalytic subunit alpha (Homo sapiens) (UniProt P17612); settings: Compound concentration 100.0 nM
[23] = biological target: BMP-2-inducible protein kinase (Homo sapiens) (UniProt Q9NSY1); settings: Compound concentration 100.0 nM
[24] = biological target: Activated CDC42 kinase 1 (Homo sapiens) (UniProt Q07912); settings: Compound concentration 100.0 nM
[25] = biological target: Tyrosine-protein kinase FRK (Homo sapiens) (UniProt P42685); settings: Compound concentration 100.0 nM
[26] = biological target: Casein kinase II subunit alpha' (Homo sapiens) (UniProt P19784); settings: Compound concentration 100.0 nM
[27] = biological target: cGMP-dependent protein kinase 1 (Homo sapiens) (UniProt Q13976); settings: Compound concentration 100.0 nM
[28] = biological target: Phosphatidylinositol 5-phosphate 4-kinase type-2 beta (Homo sapiens) (UniProt P78356); settings: Compound concentration 100.0 nM
Phosphatidylinositol 5-phosphate 4-kinase type-2 beta (Homo sapiens), sequence (P78356 whole entry): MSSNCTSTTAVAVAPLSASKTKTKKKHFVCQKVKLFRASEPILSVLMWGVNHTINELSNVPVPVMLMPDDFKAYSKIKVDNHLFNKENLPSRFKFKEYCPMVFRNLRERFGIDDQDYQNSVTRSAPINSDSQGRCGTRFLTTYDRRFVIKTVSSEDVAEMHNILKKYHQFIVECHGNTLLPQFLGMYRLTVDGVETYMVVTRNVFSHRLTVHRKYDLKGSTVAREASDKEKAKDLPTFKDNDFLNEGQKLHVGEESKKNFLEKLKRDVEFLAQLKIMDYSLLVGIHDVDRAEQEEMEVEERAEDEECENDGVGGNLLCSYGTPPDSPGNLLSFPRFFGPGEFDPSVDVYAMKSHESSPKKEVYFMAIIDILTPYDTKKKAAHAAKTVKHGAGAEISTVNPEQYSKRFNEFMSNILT

[29] = biological target: Cyclin-dependent kinase-like 5 (Homo sapiens) (UniProt O76039); settings: Compound concentration 100.0 nM
[30] = biological target: Mast/stem cell growth factor receptor Kit (Homo sapiens) (UniProt P10721); settings: Compound concentration 100.0 nM
Mast/stem cell growth factor receptor Kit (Homo sapiens), sequence (P10721 whole entry): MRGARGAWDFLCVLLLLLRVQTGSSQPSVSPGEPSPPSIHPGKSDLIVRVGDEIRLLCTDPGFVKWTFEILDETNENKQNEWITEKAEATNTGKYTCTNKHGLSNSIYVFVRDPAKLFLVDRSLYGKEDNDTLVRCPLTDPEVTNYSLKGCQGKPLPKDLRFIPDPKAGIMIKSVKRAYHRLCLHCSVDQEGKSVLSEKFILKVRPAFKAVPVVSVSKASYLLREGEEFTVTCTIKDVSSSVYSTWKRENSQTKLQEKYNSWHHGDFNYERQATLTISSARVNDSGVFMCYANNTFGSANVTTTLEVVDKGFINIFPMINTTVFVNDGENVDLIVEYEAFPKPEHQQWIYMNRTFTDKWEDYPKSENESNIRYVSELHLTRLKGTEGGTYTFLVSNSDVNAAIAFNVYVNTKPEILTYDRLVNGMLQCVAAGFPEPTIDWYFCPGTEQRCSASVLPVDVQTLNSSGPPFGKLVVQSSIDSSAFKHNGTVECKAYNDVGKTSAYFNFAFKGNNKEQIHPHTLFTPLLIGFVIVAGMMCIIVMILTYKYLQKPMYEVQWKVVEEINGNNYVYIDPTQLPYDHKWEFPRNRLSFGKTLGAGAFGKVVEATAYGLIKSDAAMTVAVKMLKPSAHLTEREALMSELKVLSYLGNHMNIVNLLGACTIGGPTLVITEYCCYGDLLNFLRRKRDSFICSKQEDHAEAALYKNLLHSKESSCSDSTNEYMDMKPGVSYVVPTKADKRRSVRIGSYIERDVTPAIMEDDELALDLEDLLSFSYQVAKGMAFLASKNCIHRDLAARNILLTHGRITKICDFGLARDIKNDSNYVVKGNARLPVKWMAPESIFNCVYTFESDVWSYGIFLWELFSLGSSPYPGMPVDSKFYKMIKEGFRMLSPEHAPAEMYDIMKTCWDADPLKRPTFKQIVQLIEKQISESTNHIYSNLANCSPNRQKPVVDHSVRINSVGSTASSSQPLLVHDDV

[31] = biological target: Interferon-induced, double-stranded RNA-activated protein kinase (Homo sapiens) (UniProt P19525); settings: Compound concentration 100.0 nM
[32] = biological target: Protein kinase C theta type (Homo sapiens) (UniProt Q04759); settings: Compound concentration 100.0 nM
[33] = biological target: Serine/threonine-protein kinase 25 (Homo sapiens) (UniProt O00506); settings: Compound concentration 100.0 nM
[34] = biological target: Interleukin-1 receptor-associated kinase 3 (Homo sapiens) (UniProt Q9Y616); settings: Compound concentration 100.0 nM
Interleukin-1 receptor-associated kinase 3 (Homo sapiens), sequence (Q9Y616 whole entry): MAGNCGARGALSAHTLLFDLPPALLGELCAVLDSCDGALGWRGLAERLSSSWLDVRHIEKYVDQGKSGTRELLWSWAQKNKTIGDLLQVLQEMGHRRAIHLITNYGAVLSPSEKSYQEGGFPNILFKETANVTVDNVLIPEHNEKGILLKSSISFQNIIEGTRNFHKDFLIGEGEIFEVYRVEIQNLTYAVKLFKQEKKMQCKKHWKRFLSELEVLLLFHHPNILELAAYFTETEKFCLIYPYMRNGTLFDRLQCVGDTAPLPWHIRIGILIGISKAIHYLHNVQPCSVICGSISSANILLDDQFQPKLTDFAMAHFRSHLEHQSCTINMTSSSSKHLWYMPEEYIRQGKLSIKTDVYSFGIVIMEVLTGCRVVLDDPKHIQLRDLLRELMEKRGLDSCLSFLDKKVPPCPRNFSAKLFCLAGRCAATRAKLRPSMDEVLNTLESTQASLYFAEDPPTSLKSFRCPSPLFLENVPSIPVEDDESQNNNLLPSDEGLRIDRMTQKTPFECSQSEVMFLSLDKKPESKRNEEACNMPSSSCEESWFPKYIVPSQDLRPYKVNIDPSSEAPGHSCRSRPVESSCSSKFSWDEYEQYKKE

[35] = biological target: Mitogen-activated protein kinase 3 (Homo sapiens) (UniProt P27361); settings: Compound concentration 100.0 nM
[36] = biological target: Ephrin type-A receptor 6 (Homo sapiens) (UniProt Q9UF33); settings: Compound concentration 100.0 nM
[37] = biological target: Serine/threonine-protein kinase/endoribonuclease IRE1 (Homo sapiens) (UniProt O75460); settings: Compound concentration 100.0 nM
[38] = biological target: 1-phosphatidylinositol 3-phosphate 5-kinase (Homo sapiens) (UniProt Q9Y2I7); settings: Compound concentration 100.0 nM
[39] = biological target: Bone morphogenetic protein receptor type-1A (Homo sapiens) (UniProt P36894); settings: Compound concentration 100.0 nM
[40] = biological target: MAP/microtubule affinity-regulating kinase 4 (Homo sapiens) (UniProt Q96L34); settings: Compound concentration 100.0 nM
[41] = biological target: Receptor-interacting serine/threonine-protein kinase 1 (Homo sapiens) (UniProt Q13546); settings: Compound concentration 100.0 nM
[42] = biological target: Homeodomain-interacting protein kinase 2 (Homo sapiens) (UniProt Q9H2X6); settings: Compound concentration 100.0 nM
Homeodomain-interacting protein kinase 2 (Homo sapiens), sequence (Q9H2X6 whole entry, looked up): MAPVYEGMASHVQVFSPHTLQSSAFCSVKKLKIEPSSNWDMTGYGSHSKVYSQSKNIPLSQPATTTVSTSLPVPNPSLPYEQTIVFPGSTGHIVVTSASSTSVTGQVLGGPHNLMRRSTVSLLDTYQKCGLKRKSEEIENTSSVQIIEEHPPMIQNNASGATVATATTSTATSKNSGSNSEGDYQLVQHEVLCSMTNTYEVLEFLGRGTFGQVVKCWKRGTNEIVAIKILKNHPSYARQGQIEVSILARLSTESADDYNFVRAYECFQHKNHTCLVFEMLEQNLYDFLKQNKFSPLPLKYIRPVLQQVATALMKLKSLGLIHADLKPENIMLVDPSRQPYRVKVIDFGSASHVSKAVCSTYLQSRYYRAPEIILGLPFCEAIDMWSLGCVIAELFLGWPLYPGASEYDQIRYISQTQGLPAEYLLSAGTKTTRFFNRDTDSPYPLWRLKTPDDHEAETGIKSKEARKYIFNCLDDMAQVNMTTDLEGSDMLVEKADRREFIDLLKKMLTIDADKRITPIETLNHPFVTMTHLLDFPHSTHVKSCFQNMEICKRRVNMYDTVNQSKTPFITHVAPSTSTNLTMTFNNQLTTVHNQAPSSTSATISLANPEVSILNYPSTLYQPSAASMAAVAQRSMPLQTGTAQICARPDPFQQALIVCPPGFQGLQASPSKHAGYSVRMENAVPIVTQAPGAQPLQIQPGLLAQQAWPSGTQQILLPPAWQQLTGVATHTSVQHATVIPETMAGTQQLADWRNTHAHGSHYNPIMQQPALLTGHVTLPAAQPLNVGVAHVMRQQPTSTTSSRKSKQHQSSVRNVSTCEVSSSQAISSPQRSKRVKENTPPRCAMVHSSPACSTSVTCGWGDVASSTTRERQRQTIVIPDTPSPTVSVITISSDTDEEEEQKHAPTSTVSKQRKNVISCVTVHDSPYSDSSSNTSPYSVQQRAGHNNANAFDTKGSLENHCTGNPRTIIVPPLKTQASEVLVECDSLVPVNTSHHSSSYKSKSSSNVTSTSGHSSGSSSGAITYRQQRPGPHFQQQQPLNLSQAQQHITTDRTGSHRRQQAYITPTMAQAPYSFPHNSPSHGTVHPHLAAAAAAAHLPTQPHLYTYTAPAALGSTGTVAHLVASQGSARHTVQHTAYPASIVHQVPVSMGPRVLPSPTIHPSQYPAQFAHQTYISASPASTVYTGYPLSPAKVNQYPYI

[43] = system: Proto-oncogene tyrosine-protein kinase receptor Ret (Homo sapiens), P07949 [V804L]; settings: Compound concentration 100.0 nM
Proto-oncogene tyrosine-protein kinase receptor Ret (Homo sapiens), P07949 [V804L], sequence (P07949 whole entry V804L): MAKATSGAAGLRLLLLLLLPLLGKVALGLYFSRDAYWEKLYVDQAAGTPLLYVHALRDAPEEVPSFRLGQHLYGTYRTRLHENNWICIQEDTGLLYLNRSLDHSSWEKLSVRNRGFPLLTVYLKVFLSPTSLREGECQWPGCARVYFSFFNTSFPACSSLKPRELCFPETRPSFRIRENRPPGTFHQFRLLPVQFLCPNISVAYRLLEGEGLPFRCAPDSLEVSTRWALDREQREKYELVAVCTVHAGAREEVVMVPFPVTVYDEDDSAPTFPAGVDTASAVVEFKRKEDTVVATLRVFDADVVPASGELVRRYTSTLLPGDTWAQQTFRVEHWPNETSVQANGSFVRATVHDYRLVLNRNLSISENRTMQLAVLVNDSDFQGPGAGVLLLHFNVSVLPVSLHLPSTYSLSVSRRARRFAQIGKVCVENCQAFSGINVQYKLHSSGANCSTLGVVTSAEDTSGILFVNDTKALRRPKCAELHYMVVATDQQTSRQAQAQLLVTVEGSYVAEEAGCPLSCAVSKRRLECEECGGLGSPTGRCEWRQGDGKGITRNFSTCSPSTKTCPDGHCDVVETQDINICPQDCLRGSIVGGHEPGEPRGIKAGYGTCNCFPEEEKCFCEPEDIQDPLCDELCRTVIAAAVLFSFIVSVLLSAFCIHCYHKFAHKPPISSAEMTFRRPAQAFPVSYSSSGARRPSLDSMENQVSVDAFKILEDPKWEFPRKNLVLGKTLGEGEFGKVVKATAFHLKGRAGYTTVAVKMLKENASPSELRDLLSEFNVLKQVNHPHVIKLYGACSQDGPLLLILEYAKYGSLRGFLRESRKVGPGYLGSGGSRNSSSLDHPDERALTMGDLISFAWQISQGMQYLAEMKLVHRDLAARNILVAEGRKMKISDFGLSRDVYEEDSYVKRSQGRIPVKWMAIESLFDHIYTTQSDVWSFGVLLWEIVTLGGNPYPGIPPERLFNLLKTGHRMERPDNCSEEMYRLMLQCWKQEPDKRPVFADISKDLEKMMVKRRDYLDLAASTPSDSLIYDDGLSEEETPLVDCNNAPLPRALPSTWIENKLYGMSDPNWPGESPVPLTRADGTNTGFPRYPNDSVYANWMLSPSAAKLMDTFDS

[44] = biological target: Sodium-dependent dopamine transporter (Homo sapiens) (UniProt Q01959); settings: Compound concentration 10.0 uM
Sodium-dependent dopamine transporter (Homo sapiens), sequence (Q01959 whole entry): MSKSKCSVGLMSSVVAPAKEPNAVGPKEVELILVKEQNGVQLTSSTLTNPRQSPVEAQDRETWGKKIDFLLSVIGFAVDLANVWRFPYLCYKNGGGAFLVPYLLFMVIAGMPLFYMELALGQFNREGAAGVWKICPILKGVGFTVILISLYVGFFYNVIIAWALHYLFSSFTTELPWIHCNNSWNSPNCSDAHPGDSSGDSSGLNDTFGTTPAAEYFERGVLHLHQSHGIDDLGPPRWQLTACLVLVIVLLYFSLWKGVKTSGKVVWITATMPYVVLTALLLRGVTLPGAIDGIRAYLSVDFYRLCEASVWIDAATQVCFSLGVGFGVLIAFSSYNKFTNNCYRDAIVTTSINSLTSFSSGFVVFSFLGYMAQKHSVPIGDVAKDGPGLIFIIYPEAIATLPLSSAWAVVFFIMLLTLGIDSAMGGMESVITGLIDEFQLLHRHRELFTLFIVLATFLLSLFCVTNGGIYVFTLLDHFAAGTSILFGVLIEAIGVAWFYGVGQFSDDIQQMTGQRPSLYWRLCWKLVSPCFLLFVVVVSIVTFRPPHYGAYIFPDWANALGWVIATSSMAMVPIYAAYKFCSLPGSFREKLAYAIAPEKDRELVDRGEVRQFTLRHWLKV

[45] = system: Mast/stem cell growth factor receptor Kit (Homo sapiens), P10721 [V559D,T670I]; settings: Compound concentration 100.0 nM

Q: Which residual activity [1] does the source give for `Nc1c(C(=O)NCc2ccc(C(=O)NCCCC3CCCCC3)cc2)cnn1-c1ccccc1` [SR-318] here?
A: 100%

Q: And the residual activity [2]?
A: 96%

Q: And the residual activity [3]?
A: 100%

Q: And the residual activity [4]?
A: 100%

Q: And the residual activity [5]?
A: 100%

Q: What about the residual activity [6] of the same compound?
A: 100%

Q: What about the residual activity [7] of the same compound?
A: 96%

Q: What about the residual activity [8] of the same compound?
A: 100%

Q: What about the residual activity [9] of the same compound?
A: 100%

Q: What about the residual activity [10] of the same compound?
A: 100%

Q: And the inhibition [11]?
A: 45.3%

Q: And the residual activity [12]?
A: 100%

Q: What about the residual activity [13] of the same compound?
A: 45%

Q: And the residual activity [14]?
A: 86%

Q: What about the residual activity [15] of the same compound?
A: 100%

Q: And the residual activity [16]?
A: 81%

Q: And the residual activity [17]?
A: 100%

Q: And the residual activity [18]?
A: 100%

Q: What about the residual activity [19] of the same compound?
A: 81%

Q: What about the residual activity [20] of the same compound?
A: 100%

Q: And the residual activity [21]?
A: 92%

Q: And the residual activity [22]?
A: 100%

Q: What about the residual activity [23] of the same compound?
A: 100%

Q: And the residual activity [24]?
A: 89%

Q: What about the residual activity [25] of the same compound?
A: 100%

Q: What about the residual activity [26] of the same compound?
A: 100%

Q: What about the residual activity [27] of the same compound?
A: 74%

Q: What about the residual activity [28] of the same compound?
A: 100%

Q: What about the residual activity [29] of the same compound?
A: 100%

Q: And the residual activity [30]?
A: 100%

Q: What about the residual activity [31] of the same compound?
A: 54%

Q: And the residual activity [32]?
A: 100%

Q: What about the residual activity [33] of the same compound?
A: 82%

Q: And the residual activity [34]?
A: 94%

Q: And the residual activity [35]?
A: 94%

Q: What about the residual activity [36] of the same compound?
A: 94%

Q: What about the residual activity [37] of the same compound?
A: 100%

Q: And the residual activity [38]?
A: 100%

Q: What about the residual activity [39] of the same compound?
A: 100%

Q: And the residual activity [40]?
A: 76%

Q: And the residual activity [41]?
A: 100%

Q: And the residual activity [42]?
A: 100%

Q: And the residual activity [43]?
A: 100%

Q: What about the inhibition [44] of the same compound?
A: 26.8%

Q: What about the residual activity [45] of the same compound?
A: 98%

Q: How did the residual activity [1] turn out when `O=C(NCCCC1CCCCC1)c1ccc(CNC(=O)c2cnn(-c3ccccc3)c2C(F)(F)F)cc1` [SR-321] was run?
A: 100%

Q: What about the residual activity [2] of the same compound?
A: 100%

Q: What about the residual activity [3] of the same compound?
A: 100%

Q: And the residual activity [4]?
A: 100%

Q: And the residual activity [5]?
A: 98%

Q: What about the residual activity [6] of the same compound?
A: 100%

Q: And the residual activity [7]?
A: 89%

Q: And the residual activity [8]?
A: 92%

Q: And the residual activity [9]?
A: 79%

Q: What about the residual activity [10] of the same compound?
A: 95%

Q: What about the inhibition [11] of the same compound?
A: 54.8%

Q: What about the residual activity [12] of the same compound?
A: 100%

Q: And the residual activity [13]?
A: 100%

Q: What about the residual activity [14] of the same compound?
A: 100%

Q: What about the residual activity [15] of the same compound?
A: 100%

Q: What about the residual activity [16] of the same compound?
A: 70%

Q: And the residual activity [17]?
A: 91%

Q: What about the residual activity [18] of the same compound?
A: 100%

Q: And the residual activity [19]?
A: 100%

Q: And the residual activity [20]?
A: 100%

Q: What about the residual activity [21] of the same compound?
A: 100%

Q: And the residual activity [22]?
A: 100%

Q: What about the residual activity [23] of the same compound?
A: 100%

Q: What about the residual activity [24] of the same compound?
A: 100%

Q: And the residual activity [25]?
A: 77%

Q: What about the residual activity [26] of the same compound?
A: 88%

Q: And the residual activity [27]?
A: 100%

Q: What about the residual activity [28] of the same compound?
A: 96%

Q: And the residual activity [29]?
A: 100%

Q: And the residual activity [30]?
A: 100%

Q: And the residual activity [31]?
A: 64%

Q: What about the residual activity [32] of the same compound?
A: 100%

Q: What about the residual activity [33] of the same compound?
A: 81%

Q: And the residual activity [34]?
A: 100%

Q: And the residual activity [35]?
A: 93%

Q: What about the residual activity [36] of the same compound?
A: 88%

Q: And the residual activity [37]?
A: 94%

Q: What about the residual activity [38] of the same compound?
A: 65%

Q: And the residual activity [39]?
A: 100%

Q: What about the residual activity [40] of the same compound?
A: 98%

Q: And the residual activity [41]?
A: 89%

Q: And the residual activity [42]?
A: 100%

Q: What about the residual activity [43] of the same compound?
A: 100%

Q: And the inhibition [44]?
A: 22.3%

Q: What about the residual activity [45] of the same compound?
A: 100%

From ChEMBL document CHEMBL4507315 (2021)
